Measurements as given in paper PMC5029964 (Journal of the American Chemical Society, 2016).
Entries after “also recorded” stand apart in the source; their conditions may differ.

Assays:
PchA [1] = target: T1, PchA (Pseudomonas aeruginosa, UniProt Q51508); conditions: cited from earlier work
T1 sequence (Q51508 1-476): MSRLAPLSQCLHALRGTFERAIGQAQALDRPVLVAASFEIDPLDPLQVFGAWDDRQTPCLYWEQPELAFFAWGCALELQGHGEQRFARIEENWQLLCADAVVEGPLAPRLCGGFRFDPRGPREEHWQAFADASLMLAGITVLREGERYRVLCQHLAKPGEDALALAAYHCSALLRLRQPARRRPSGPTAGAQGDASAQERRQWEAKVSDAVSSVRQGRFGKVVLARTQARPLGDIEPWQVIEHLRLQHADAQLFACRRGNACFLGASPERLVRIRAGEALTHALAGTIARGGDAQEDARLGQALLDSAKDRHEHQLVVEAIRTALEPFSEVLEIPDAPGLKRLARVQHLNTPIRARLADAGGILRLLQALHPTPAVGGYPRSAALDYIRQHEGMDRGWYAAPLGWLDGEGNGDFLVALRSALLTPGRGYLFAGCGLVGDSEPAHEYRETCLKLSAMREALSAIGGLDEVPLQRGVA

[2] = test system: MST enzymes (PchA, EntC, Irp9); assay: Ligand binding rates by stopped-flow intrinsic fluorescence; conditions: all three enzymes
EntC = target: T2, EntC (Escherichia coli, UniProt P0AEJ2); assay: Steady-state chorismate isomerase activity, PchB-coupled salicylate fluorescence; assay type: biochemical
T2 sequence (P0AEJ2 1-391): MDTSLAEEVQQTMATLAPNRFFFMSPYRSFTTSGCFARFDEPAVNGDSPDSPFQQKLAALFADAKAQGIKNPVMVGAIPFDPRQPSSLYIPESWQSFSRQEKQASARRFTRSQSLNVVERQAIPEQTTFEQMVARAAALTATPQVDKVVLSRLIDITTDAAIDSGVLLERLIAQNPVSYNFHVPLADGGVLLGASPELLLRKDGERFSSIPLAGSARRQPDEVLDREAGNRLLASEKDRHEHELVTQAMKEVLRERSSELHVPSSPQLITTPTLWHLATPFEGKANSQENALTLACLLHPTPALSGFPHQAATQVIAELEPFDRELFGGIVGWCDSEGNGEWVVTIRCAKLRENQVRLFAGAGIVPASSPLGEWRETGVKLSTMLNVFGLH

PchB = target: T3, PchB (Pseudomonas aeruginosa, UniProt Q51507); assay: Steady-state PchB lyase activity; assay type: biochemical
T3 sequence (Q51507 1-101): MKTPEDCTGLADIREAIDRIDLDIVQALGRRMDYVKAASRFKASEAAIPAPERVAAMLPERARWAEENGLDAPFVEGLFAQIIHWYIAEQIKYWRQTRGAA

PchA [3] = target: T1, PchA; assay type: biochemical
Irp9 = Irp9 (Yersinia enterocolitica, UniProt Q9X9I8); assay type: biochemical; conditions: saturating chorismate 20 μM; magnesium 0–20 mM
PchA, EntC, and Irp9 = assay: Dissociation constants by intrinsic fluorescence; assay type: binding; conditions: read-out: Kd of E·Mg complexes (range over all three enzymes)
Fur = conditions: read-out: Kd for Fe(II) binding; cited from earlier work

**Q.** Which “feedback inhibition of PchA” value (PchA [1]) does the source give for `CN1[C@@H]([C@H]2CSC(c3ccccc3O)=N2)SC[C@H]1C(=O)O` [pyochelin] here?
**A.** no inhibition

**Q.** With `[Cl-].[Cl-].[Mg+2]` [magnesium, magnesium chloride] as the molecule, how does the “observed rate constant of ligand binding (bound from ∼1.0 ms dead time)” value ([2]; binding complete within stopped-flow dead time, 25 °C) read?
**A.** greater than 1600 s^–1

**Q.** And the “association rate constants (order of magnitude)” value ([2]; suggested from dead-time bound)?
**A.** ~10^8 M^–1 s^–1

**Q.** What about the “magnesium concentration at which maximal velocity was observed” value (EntC; saturating chorismate 200 μM, magnesium 0–20 mM) of the same molecule?
**A.** approximately 0.5 mM

**Q.** And the “magnesium concentrations at which inhibition is noted” value (EntC; steady state)?
**A.** over 0.5 mM

**Q.** And the “binding of and inhibition by magnesium” value (PchB)?
**A.** does not bind and is not inhibited

**Q.** What about the “magnesium concentration at which maximal velocity was observed” value (PchA [3]) of the same molecule?
**A.** approximately 0.5 mM

**Q.** What about the “magnesium concentrations at which inhibition is noted” value (PchA [3]; steady state) of the same molecule?
**A.** over 0.5 mM

**Q.** And the “magnesium inhibition in the steady state (shape of magnesium dependence)” value (Irp9)?
**A.** normal hyperbolic shape; also recorded: did not exhibit the same inhibition

**Q.** And the Kd (PchA, EntC, and Irp9)?
**A.** 130 to 190 µM

**Q.** For `O=S(=O)([O-])[O-].O=S(=O)([O-])[O-].[Fe+2].[NH4+].[NH4+]` [Fe(II), ferrous ammonium sulfate], which Kd (Fur) is on record?
**A.** 1.2 µM

**Q.** What about the “effect on PchA activity” value (PchA [1]; 100 μM) of the same molecule?
**A.** did not alter PchA activity

**Q.** With `N[C@@H](CS)C(=O)O` [cysteine] as the molecule, how does the “feedback inhibition of PchA” value (PchA [1]) read?
**A.** no inhibition
